Reference: US11919898B2, “Crystal form of azaindole derivative and use thereof” (Wuxi Life Fountain Biotech Co., Ltd, priority 2020, dated 2024)
Several values for one entry are separate records, joined by “and”; a condition that tells them apart may be missing. Identical values can stand only once.

What was measured:
[1] = Hygroscopicity test by dynamic vapor sorption (DVS); assay type: physicochemical; settings: for ΔW, hygroscopic weight gain: 25° C. and 80% RH, DVS; for Classification of hygroscopicity: 25° C./80% RH
Protocol: Dynamic Vapor Sorption (DVS) of the Present Invention • Instrument model: SMS DVS Intrinsic Dynamic Vapor Sorption Analyzer • Test method: A sample (10-30 mg) is tested in a DVS sample pan. Detailed DVS Parameters: • Temperature: 25° C. • Equilibration: dm/dt=0.002%/min (Minimum: 10 min, Maximum: 180 min) • RH (%) test interval: 10 (0-90%), 5 (90-95%) • RH (%) test interval range: 0-95-0 Hygroscopicity evaluations are classified as follows: [table] Note: AW % represents the hygroscopic weight gain of the test product at 25° C./80% RH. Experimental Method: • 10-30 mg of the crystal form A of the compound of Formula (II) was placed in the DVS sample pan and tested. Experimental Method: • 10-30 mg of the crystal form G of the compound of Formula (III) was placed in the DVS sample pan and tested. Experimental Method: • 10-30 mg of the crystal form J of the compound of Formula (IV) was placed in the DVS sample pan and tested.

[2] = Stability comparison of crystal form A and crystal form B (slurry in ethanol, XRPD); assay type: physicochemical; settings: stirred in ethanol for 16 hrs
Text: 35 g of the crystal form B of the compound of Formula (II) was weighed, added to ethanol, and stirred for 16 hrs.

ΔW, hygroscopic weight gain [1]	Classification of hygroscopicity [1]	SMILES	Crystal form conversion (XRPD) [2]
6.077%	hygroscopic	COc1cc(OC)c(F)c(Cc2c[nH]c3ncc(-c4cnn(CCO)c4)cc23)c1F.Cc1ccc(S(=O)(=O)O)cc1	
		COc1cc(OC)c(F)c(Cc2c[nH]c3ncc(-c4cnn(CCO)c4)cc23)c1F.Cl	can be converted into the crystal form A of the compound of Formula (II)
3.829% and 3.928%	hygroscopic	COc1cc(OC)c(F)c(Cc2c[nH]c3ncc(-c4cnn(CCO)c4)cc23)c1F	
